According to US20230265151A1, “GIP/GLP1 CO-AGONIST COMPOUNDS” (priority 2020, published 2023):
Like-named read-outs stand apart in the source and are kept apart here. Values belong to the compound of their own block, whether it stands above or below them. *1 amine or outer side, *2 acyl side, *3 side chain or, on linkers, in order; H or OH if unused. Where a SMILES comes first, the peptide text is derived from it. Side-chain parts run from the residue outwards. [ ]: non-standard residue; d: D form. The star is where a group is joined. αMePhe(2-F) = C[C@](N)(Cc1ccccc1F)C(=O)O; γGlu = O=C(O)[C@H](CCC(=O)[*:2])N[*:1]; C14 diacid = O=C(O)CCCCCCCCCCCCC(=O)*; εLys = N[C@@H](CCCCN[*:1])C(=O)[*:2]; αMeY = C[C@](N)(Cc1ccc(O)cc1)C(=O)O; 4Pal = N[C@@H](Cc1ccncc1)C(=O)O; αMeL = CC(C)C[C@](C)(N)C(=O)O; Orn = NCCC[C@H](N)C(=O)O; Aib = CC(C)(N)C(=O)O

Key:
Type in all cases: cell-based
hGIPR = biological target: T1, hGIPR (Homo sapiens, UniProt P48546); assay: Functional cAMP formation (HTRF) in HEK-293 clonal cells expressing hGIPR, 0.1% bovine casein, without or with 1.0% human serum albumin
T1 construct: expressed in transfected cells
T1 sequence (P48546 22-466): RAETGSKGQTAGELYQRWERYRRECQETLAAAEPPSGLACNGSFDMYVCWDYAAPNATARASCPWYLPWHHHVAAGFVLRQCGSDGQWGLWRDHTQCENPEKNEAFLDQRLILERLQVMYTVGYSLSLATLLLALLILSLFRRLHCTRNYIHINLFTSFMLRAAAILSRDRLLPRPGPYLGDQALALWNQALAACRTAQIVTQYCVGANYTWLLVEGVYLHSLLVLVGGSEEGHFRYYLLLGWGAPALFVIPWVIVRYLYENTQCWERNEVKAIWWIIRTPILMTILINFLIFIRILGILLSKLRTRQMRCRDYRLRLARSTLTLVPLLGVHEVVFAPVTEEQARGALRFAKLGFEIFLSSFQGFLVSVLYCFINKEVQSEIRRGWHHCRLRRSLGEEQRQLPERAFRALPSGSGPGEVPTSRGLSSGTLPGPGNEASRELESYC
Summary of the method: (§1)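 Readings of the HTRF 665/620 nm ratio, which falls as cAMP rises, were converted to nM cAMP using a standard curve after 30 min peptide exposure at 37° C.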

hGCGR = biological target: T2, hGCGR (Homo sapiens, UniProt P47871); assay: Functional cAMP formation (HTRF) in HEK-293 clonal cells expressing hGCGR, 0.1% bovine casein, without or with 1.0% human serum albumin
T2 construct: expressed in transfected cells
Summary of the method: as §1

hGLP-1R = hGLP-1R (Homo sapiens, UniProt P43220); assay: Functional cAMP formation (HTRF) in HEK-293 clonal cells expressing hGLP-1R, 0.1% bovine casein, without or with 1.0% human serum albumin; set-up: expressed in transfected cells
Summary of the method: as §1

[1] = hGCGR EC50, nM (SEM, n), cAMP, incubated at 37° C., 0.1% bovine casein (no human serum albumin), geometric mean
[2] = hGLP-1R EC50, nM (SEM, n), cAMP, incubated at 37° C., 0.1% bovine casein (no human serum albumin), geometric mean

T2 sequence (P47871 26-477): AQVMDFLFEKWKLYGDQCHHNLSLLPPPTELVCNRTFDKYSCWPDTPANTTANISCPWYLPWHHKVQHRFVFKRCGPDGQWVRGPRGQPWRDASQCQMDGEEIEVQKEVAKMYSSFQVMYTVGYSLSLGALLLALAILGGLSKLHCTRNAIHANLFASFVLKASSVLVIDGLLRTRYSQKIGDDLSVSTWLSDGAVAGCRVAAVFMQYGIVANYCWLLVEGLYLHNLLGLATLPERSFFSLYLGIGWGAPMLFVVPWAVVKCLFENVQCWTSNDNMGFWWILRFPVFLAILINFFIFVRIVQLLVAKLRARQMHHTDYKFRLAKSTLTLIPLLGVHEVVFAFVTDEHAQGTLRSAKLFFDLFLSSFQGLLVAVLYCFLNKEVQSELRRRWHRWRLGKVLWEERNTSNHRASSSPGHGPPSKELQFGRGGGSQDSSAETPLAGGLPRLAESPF
Sequence of hGLP-1R (P43220 24-463): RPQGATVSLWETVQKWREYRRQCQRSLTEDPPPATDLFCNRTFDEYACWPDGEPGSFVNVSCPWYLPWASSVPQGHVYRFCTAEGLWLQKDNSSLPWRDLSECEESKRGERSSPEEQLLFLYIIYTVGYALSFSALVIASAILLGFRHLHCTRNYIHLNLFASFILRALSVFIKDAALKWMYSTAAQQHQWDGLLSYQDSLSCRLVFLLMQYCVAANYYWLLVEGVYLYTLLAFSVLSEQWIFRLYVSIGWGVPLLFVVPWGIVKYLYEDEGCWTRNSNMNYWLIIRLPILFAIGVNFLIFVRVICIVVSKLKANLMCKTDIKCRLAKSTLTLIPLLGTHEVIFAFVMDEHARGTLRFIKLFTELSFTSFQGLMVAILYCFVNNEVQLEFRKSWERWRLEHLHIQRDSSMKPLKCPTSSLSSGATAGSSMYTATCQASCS

EC50 (hGIPR; 0.1% bovine casein and 1.0% human serum albumin, 37° C., geometric mean, read-out: hGIPR EC50, nM (SEM, n)): 2.19 nM
Emax (hGIPR; HEK293, 0.1% bovine casein and 1.0% human serum albumin, 37° C., percent of maximal response to GIP(1-42)NH2, read-out: hGIPR Emax, % ± SEM): 85.6%
EC50 (hGIPR; cAMP, incubated at 37° C., 0.1% bovine casein (no human serum albumin), geometric mean, read-out: hGIPR EC50, nM (SEM, n)): 0.0274 nM
EC50 (hGCGR; 0.1% bovine casein and 1.0% human serum albumin, 37° C., geometric mean, read-out: hGCGR EC50, nM (SEM, n)): > 9950 nM
EC50 (hGCGR; cAMP, incubated at 37° C., 0.1% bovine casein (no human serum albumin), geometric mean, read-out: hGCGR EC50, nM (SEM, n)): > 9950 nM
EC50 (hGLP-1R; 0.1% bovine casein and 1.0% human serum albumin, 37° C., geometric mean, read-out: hGLP-1R EC50, nM (SEM, n)): 24.3 nM
EC50 (hGLP-1R; cAMP, incubated at 37° C., 0.1% bovine casein (no human serum albumin), geometric mean, read-out: hGLP-1R EC50, nM (SEM, n)): 0.371 nM
SMILES: CC[C@H](C)[C@H](NC(=O)[C@H](CC(C)C)NC(=O)[C@](C)(Cc1ccc(O)cc1)NC(=O)[C@@H](CCC(=O)O)NC(=O)[C@@H](NC(=O)[C@H](Cc1ccccc1)NC(=O)[C@H](CCC(=O)O)NC(=O)C(C)(C)NC(=O)[C@H](CCC(N)=O)NC(=O)[C@H](C)NC(=O)[C@H](CCCCNC(=O)[C@@H](N)CCCCNC(=O)CC[C@H](NC(=O)CCCCCCCCCCCCC(=O)O)C(=O)O)NC(=O)[C@H](CCCN)NC(=O)[C@H](CC(=O)O)NC(=O)[C@H](CC(C)C)NC(=O)[C@](C)(CC(C)C)NC(=O)[C@@H](NC(=O)[C@H](CO)NC(=O)[C@H](Cc1ccncc1)NC(=O)[C@H](CC(=O)O)NC(=O)[C@H](CO)NC(=O)[C@@H](NC(=O)[C@](C)(Cc1ccccc1F)NC(=O)[C@@H](NC(=O)CNC(=O)[C@H](CCC(=O)O)NC(=O)C(C)(C)NC(=O)[C@@H](N)Cc1ccc(O)cc1)[C@@H](C)O)[C@@H](C)O)[C@@H](C)CC)[C@@H](C)CC)C(=O)N[C@@H](CCC(=O)O)C(=O)NCC(=O)NCC(=O)N[C@@H](CCCCNC(=O)[C@@H](N)CCCCNC(=O)CC[C@H](NC(=O)CCCCCCCCCCCCC(=O)O)C(=O)O)C(N)=O [Example 186] (H-Y[Aib]EGT[αMePhe(2-F)]TSD[4Pal]SI[αMeL]LD[Orn]K([εLys-γGlu-C14 diacid])AQ[Aib]EFI[dE][αMeY]LIEGGK([εLys-γGlu-C14 diacid])-NH2; N-terminus assumed)

SMILES: CC[C@H](C)[C@H](NC(=O)[C@H](CC(C)C)NC(=O)[C@](C)(Cc1ccc(O)cc1)NC(=O)[C@H](CCCCNC(=O)COCCOCCNC(=O)COCCOCCNC(=O)CC[C@H](NC(=O)CCCCCCCCCCCCC(=O)O)C(=O)O)NC(=O)[C@@H](NC(=O)[C@H](Cc1ccccc1)NC(=O)[C@H](CCC(=O)O)NC(=O)C(C)(C)NC(=O)[C@H](CCC(N)=O)NC(=O)[C@H](C)NC(=O)[C@H](CCCCNC(=O)COCCOCCNC(=O)COCCOCCNC(=O)CC[C@H](NC(=O)CCCCCCCCCCCCC(=O)O)C(=O)O)NC(=O)[C@H](CCCN)NC(=O)[C@H](CC(=O)O)NC(=O)[C@H](CC(C)C)NC(=O)[C@](C)(CC(C)C)NC(=O)[C@@H](NC(=O)C(C)(C)NC(=O)[C@@H](NC(=O)[C@H](CC(=O)O)NC(=O)[C@H](CO)NC(=O)[C@@H](NC(=O)[C@](C)(Cc1ccccc1)NC(=O)[C@@H](NC(=O)CNC(=O)[C@H](CCC(=O)O)NC(=O)C(C)(C)NC(=O)[C@@H](N)Cc1ccc(O)cc1)[C@@H](C)O)[C@@H](C)O)C(C)C)[C@@H](C)CC)[C@@H](C)CC)C(=O)N[C@@H](CCC(=O)O)C(=O)NCC(=O)NCC(=O)N1CCC[C@H]1C(=O)N[C@@H](CO)C(=O)N[C@@H](CO)C(=O)NCC(=O)N[C@@H](C)C(=O)N1CCC[C@H]1C(=O)N1CCC[C@H]1C(=O)N1CCC[C@H]1C(=O)N[C@@H](CO)C(N)=O [Example 182]
Emax (hGIPR; HEK293, read-out: hGIPR Emax, % ± SEM, percent of maximal response to GIP(1-42)NH2, 37° C., 0.1% bovine casein, arithmetic mean): 89%
EC50 (hGCGR; [1]): > 9950 nM
Emax (hGLP-1R; HEK293, read-out: hGLP-1R Emax, % ± SEM, percent of maximal response to GLP-1(7-36)NH2, 37° C., 0.1% bovine casein, arithmetic mean): 96.9%
EC50 (hGLP-1R; [2]): 0.185 nM

SMILES: CC[C@H](C)[C@H](NC(=O)[C@H](CC(C)C)NC(=O)[C@](C)(Cc1ccc(O)cc1)NC(=O)[C@H](CCCCNC(=O)COCCOCCNC(=O)COCCOCCNC(=O)CC[C@H](NC(=O)CCCCCCCCCCCCC(=O)O)C(=O)O)NC(=O)[C@@H](NC(=O)[C@H](Cc1ccccc1)NC(=O)[C@H](CCC(=O)O)NC(=O)C(C)(C)NC(=O)[C@H](CCC(N)=O)NC(=O)[C@H](C)NC(=O)[C@H](CCCCNC(=O)COCCOCCNC(=O)COCCOCCNC(=O)CC[C@H](NC(=O)CCCCCCCCCCCCC(=O)O)C(=O)O)NC(=O)[C@H](CCCN)NC(=O)[C@H](CC(=O)O)NC(=O)[C@H](CC(C)C)NC(=O)[C@](C)(CC(C)C)NC(=O)[C@@H](NC(=O)[C@H](CO)NC(=O)[C@H](Cc1ccncc1)NC(=O)[C@H](CC(=O)O)NC(=O)[C@H](CO)NC(=O)[C@@H](NC(=O)[C@](C)(Cc1ccccc1F)NC(=O)[C@@H](NC(=O)CNC(=O)[C@H](CCC(=O)O)NC(=O)C(C)(C)NC(=O)[C@@H](N)Cc1ccc(O)cc1)[C@@H](C)O)[C@@H](C)O)[C@@H](C)CC)[C@@H](C)CC)C(=O)N[C@@H](CCC(=O)O)C(=O)NCC(=O)NCC(=O)N1CCC[C@H]1C(=O)N[C@@H](CO)C(=O)N[C@@H](CO)C(=O)NCC(=O)N[C@@H](C)C(=O)N1CCC[C@H]1C(=O)N1CCC[C@H]1C(=O)N1CCC[C@H]1C(=O)N[C@@H](CO)C(N)=O [Example 16]
Emax (hGIPR; HEK293, read-out: hGIPR Emax, % ± SEM, 0.1% bovine casein and 1.0% human serum albumin, 37° C., percent of maximal response to GIP(1-42)NH2): 91.5 ± 1.01%
EC50 (hGIPR; hGIPR EC50, nM (SEM, n), 0.1% bovine casein and 1.0% human serum albumin, 37° C., geometric mean): 0.625 nM
EC50 (hGIPR; hGIPR EC50, nM (SEM, n), cAMP, incubated at 37° C., 0.1% bovine casein (no human serum albumin), geometric mean): 0.0113 nM
EC50 (hGCGR; hGCGR EC50, nM (SEM, n), 0.1% bovine casein and 1.0% human serum albumin, 37° C., geometric mean): > 9950 nM
EC50 (hGCGR; [1]): > 9950 nM
Emax (hGLP-1R; HEK293, read-out: hGLP-1R Emax, % ± SEM, 0.1% bovine casein and 1.0% human serum albumin, 37° C., percent of maximal response to GLP-1(7-36)NH2): 98.3 ± 0.735%
EC50 (hGLP-1R; hGLP-1R EC50, nM (SEM, n), 0.1% bovine casein and 1.0% human serum albumin, 37° C., geometric mean): 9.06 nM
EC50 (hGLP-1R; [2]): 0.245 nM

SMILES: CC[C@H](C)[C@H](NC(=O)[C@H](CC(C)C)NC(=O)[C@](C)(Cc1ccc(O)cc1)NC(=O)[C@H](CCCCNC(=O)COCCOCCNC(=O)COCCOCCNC(=O)CC[C@H](NC(=O)CCCCCCCCCOc1ccc(C(=O)O)cc1)C(=O)O)NC(=O)[C@@H](NC(=O)[C@H](Cc1ccccc1)NC(=O)[C@H](CCC(=O)O)NC(=O)C(C)(C)NC(=O)[C@H](CCC(N)=O)NC(=O)[C@H](C)NC(=O)[C@H](CCC(N)=O)NC(=O)[C@H](CCCN)NC(=O)[C@H](CC(=O)O)NC(=O)[C@H](CC(C)C)NC(=O)[C@](C)(CC(C)C)NC(=O)[C@@H](NC(=O)C(C)(C)NC(=O)[C@H](Cc1ccc(O)cc1)NC(=O)[C@H](CC(=O)O)NC(=O)[C@H](CO)NC(=O)[C@@H](NC(=O)[C@](C)(Cc1ccccc1F)NC(=O)[C@@H](NC(=O)CNC(=O)[C@H](CCC(=O)O)NC(=O)C(C)(C)NC(=O)[C@@H](N)Cc1ccc(O)cc1)[C@@H](C)O)[C@@H](C)O)[C@@H](C)CC)[C@@H](C)CC)C(=O)N[C@@H](CCCCNC(=O)COCCOCCNC(=O)COCCOCCNC(=O)CC[C@H](NC(=O)CCCCCCCCCOc1ccc(C(=O)O)cc1)C(=O)O)C(=O)NCC(=O)NCC(=O)N1CCC[C@H]1C(=O)N[C@@H](CO)C(=O)N[C@@H](CO)C(=O)NCC(=O)N[C@@H](C)C(=O)N1CCC[C@H]1C(=O)N1CCC[C@H]1C(=O)N1CCC[C@H]1C(=O)N[C@@H](CO)C(N)=O [Example 402]
Emax (hGIPR; HEK293, read-out: hGIPR Emax, % ± SEM, cAMP, 37° C., 0.1% bovine casein and 1.0% human serum albumin, percent of maximal response to GIP(1-42)NH2): 84.5%
Emax (hGIPR; HEK293, read-out: hGIPR Emax, % ± SEM, cAMP, 37° C., 0.1% bovine casein, percent of maximal response to GIP(1-42)NH2, arithmetic mean): 98.9%
EC50 (hGIPR; hGIPR EC50, nM (SEM, n), cAMP, 37° C., 0.1% bovine casein (no human serum albumin), geometric mean): 0.0132 nM
EC50 (hGIPR; hGIPR EC50, nM (SEM, n), cAMP, 37° C., 0.1% bovine casein and 1.0% human serum albumin, geometric mean (SEM, n)): 1.11 nM
EC50 (hGCGR; hGCGR EC50, nM (SEM, n), cAMP, 37° C., 0.1% bovine casein (no human serum albumin), geometric mean): > 9950 nM
EC50 (hGCGR; hGCGR EC50, nM (SEM, n), cAMP, 37° C., 0.1% bovine casein and 1.0% human serum albumin, geometric mean (SEM, n)): > 9950 nM
Emax (hGLP-1R; HEK293, read-out: hGLP-1R Emax, % ± SEM, cAMP, 37° C., 0.1% bovine casein and 1.0% human serum albumin, percent of maximal response to GLP-1(7-36)NH2): 110%
EC50 (hGLP-1R; hGLP-1R EC50, nM (SEM, n), cAMP, 37° C., 0.1% bovine casein (no human serum albumin), geometric mean): 0.221 nM
EC50 (hGLP-1R; hGLP-1R EC50, nM (SEM, n), cAMP, 37° C., 0.1% bovine casein and 1.0% human serum albumin, geometric mean (SEM, n)): 13.5 nM
